Source: patent US20200323215A1, “PESTICIDE FORMULATIONS DERIVED FROM COMBINATIONS OF CARRAGEENANS, SORBIC ACIDS, AND BICARBONATES” (Circadian Crop Sciences LLC, priority 2019, published 2020)

Key:
[1] = system: fusarium; conditions: in the literature; cited from earlier work
[2] = system: Tomato Russet Mite (Aculops lycopersici); conditions: sprays on young tomato plants naturally infested
Description: Fifty grams of potassium sorbate and fifty grams of sodium bicarbonate are mixed with one hundred grams of carrageenan.

[3] = system: powdery mildew; assay: Sprays against powdery mildew infestations on nursery grown plants; format: in vivo; conditions: for eliminating infestations of powdery mildew: single ingredient sprayed at 1 tablespoon per gallon of water, nursery grown roses, gerbera daisies, ornamental peas, trumpet vines, chrysanthemums, grapevines
Description: One hundred grams of potassium bicarbonate is blended with one hundred grams of carrageenan.

SMILES	efficacy against fusarium, each product separately [1]	effect on Tomato Russet Mites [2]	eliminating infestations of powdery mildew [3]	effect on powdery mildew that had overwintered on ornamental pea leaves ([3]; overwintered powdery mildew, ornamental pea leaves)
O=C([O-])O.[K+] [potassium bicarbonate]	shown efficacy			
C/C=C/C=C/C(=O)[O-].[K+] [potassium sorbate]		no effect	ineffective	
O=C([O-])O.[Na+] [sodium bicarbonate]			ineffective	unaffected
